Key:
Assay in all cases: DiscoverX KinomeScreen competition binding assay (kinase selectivity panel)
[1] = biological target: T1, panel of ninety-seven kinases (Homo sapiens, UniProt Q15303); conditions: ERBB4; screened at 3000 nM
T1 construct: purchased DiscoverX; host or cells: E. coli (BL21-derived, T7 phage display) or HEK-293
Method in brief: (§1)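 Kinases on T7 phage (BL21-derived E. coli host) or DNA-tagged from HEK-293 cells compete between compound and a bead-immobilized biotinylated ligand. Captured kinase is eluted and quantified by qPCR. Compound is tested at 3000 nM (3 μM); binding is reported as % Ctrl, with DMSO as 100% and control compound as 0%.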

[2] = biological target: T2, panel of ninety-seven kinases (Homo sapiens, UniProt Q9Y463); conditions: DYRK1B; screened at 3000 nM
T2 construct: purchased DiscoverX; host or cells: E. coli (BL21-derived, T7 phage display) or HEK-293
T2 sequence (Q9Y463 whole entry): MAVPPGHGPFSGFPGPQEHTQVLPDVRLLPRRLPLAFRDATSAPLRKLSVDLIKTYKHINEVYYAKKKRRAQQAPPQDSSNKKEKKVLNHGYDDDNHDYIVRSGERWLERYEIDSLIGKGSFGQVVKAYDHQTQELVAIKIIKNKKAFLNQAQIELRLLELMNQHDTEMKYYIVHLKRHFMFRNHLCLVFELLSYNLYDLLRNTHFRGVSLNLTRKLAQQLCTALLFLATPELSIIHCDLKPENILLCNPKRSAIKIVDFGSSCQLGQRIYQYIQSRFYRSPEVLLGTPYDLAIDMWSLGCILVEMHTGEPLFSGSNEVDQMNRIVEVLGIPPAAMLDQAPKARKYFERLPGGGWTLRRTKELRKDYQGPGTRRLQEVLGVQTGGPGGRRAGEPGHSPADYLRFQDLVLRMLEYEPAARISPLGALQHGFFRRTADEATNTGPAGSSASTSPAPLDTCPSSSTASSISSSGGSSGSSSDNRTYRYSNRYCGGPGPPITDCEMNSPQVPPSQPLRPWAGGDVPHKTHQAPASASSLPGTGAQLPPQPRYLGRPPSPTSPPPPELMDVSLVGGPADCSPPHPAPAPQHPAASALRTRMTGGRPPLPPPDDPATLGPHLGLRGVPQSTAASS
Method in brief: as §1

[3] = biological target: T3, panel of ninety-seven kinases (Homo sapiens, UniProt Q9BWU1); conditions: CDK19; screened at 3000 nM
T3 construct: purchased DiscoverX; host or cells: E. coli (BL21-derived, T7 phage display) or HEK-293
T3 sequence (Q9BWU1 whole entry): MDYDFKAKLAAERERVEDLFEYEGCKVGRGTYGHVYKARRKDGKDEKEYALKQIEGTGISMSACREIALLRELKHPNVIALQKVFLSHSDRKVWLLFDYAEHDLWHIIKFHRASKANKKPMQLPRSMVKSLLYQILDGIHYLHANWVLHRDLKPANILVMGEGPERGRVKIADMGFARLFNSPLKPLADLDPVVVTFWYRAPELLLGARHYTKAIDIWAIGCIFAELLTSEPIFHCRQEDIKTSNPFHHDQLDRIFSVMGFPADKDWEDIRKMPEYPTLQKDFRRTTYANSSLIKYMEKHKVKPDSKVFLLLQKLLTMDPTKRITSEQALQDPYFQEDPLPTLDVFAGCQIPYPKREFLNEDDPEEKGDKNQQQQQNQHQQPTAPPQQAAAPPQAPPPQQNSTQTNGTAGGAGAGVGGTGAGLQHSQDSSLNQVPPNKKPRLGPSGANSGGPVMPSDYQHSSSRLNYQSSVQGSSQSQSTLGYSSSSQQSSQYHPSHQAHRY
Method in brief: as §1

[4] = biological target: T4, panel of ninety-seven kinases (Homo sapiens, UniProt P04049); conditions: RAF1; screened at 3000 nM
T4 construct: purchased DiscoverX; host or cells: E. coli (BL21-derived, T7 phage display) or HEK-293
Method in brief: as §1

[5] = biological target: T5, panel of ninety-seven kinases (Homo sapiens, UniProt P49137); conditions: MAPKAPK2; screened at 3000 nM
T5 construct: purchased DiscoverX; host or cells: E. coli (BL21-derived, T7 phage display) or HEK-293
T5 sequence (P49137 whole entry): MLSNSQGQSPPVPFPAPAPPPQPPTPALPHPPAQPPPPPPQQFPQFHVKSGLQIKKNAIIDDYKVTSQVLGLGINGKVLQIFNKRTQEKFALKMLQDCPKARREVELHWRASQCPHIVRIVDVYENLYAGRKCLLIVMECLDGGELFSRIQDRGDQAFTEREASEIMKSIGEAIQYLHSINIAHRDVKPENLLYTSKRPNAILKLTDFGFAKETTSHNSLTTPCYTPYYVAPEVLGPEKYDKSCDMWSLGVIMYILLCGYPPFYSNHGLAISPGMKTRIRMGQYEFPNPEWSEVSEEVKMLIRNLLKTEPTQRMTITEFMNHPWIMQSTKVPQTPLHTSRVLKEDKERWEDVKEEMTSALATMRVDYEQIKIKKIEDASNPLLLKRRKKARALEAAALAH
Method in brief: as §1

[6] = biological target: T6, panel of ninety-seven kinases (Homo sapiens, UniProt Q05397); conditions: PTK2; screened at 3000 nM
T6 construct: purchased DiscoverX; host or cells: E. coli (BL21-derived, T7 phage display) or HEK-293
T6 sequence (Q05397 whole entry): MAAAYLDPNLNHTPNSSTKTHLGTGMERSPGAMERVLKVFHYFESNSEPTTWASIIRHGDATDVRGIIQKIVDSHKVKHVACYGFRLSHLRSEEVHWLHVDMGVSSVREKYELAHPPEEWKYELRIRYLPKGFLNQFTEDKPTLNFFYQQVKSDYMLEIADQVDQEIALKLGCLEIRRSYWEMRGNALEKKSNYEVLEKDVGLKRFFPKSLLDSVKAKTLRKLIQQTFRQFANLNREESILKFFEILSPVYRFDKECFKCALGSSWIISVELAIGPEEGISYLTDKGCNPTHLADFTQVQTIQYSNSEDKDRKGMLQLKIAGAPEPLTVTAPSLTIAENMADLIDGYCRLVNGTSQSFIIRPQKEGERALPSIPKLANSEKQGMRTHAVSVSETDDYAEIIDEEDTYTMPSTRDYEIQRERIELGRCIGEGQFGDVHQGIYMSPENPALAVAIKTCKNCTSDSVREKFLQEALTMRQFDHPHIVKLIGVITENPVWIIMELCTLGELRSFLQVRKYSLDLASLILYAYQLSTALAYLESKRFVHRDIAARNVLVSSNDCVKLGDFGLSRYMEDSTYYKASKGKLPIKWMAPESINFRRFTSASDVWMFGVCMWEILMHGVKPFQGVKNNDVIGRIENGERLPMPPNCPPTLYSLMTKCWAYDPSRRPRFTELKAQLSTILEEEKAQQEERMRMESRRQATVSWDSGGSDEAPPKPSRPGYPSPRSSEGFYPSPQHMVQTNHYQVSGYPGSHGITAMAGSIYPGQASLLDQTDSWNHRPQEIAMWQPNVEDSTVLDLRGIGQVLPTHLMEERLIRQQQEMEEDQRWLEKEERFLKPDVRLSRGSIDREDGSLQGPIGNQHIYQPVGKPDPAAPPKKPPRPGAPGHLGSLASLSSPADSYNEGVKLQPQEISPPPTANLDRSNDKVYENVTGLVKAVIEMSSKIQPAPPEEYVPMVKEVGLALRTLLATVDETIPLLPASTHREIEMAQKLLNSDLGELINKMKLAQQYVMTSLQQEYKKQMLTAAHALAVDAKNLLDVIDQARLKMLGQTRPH
Method in brief: as §1

[7] = biological target: T7, panel of ninety-seven kinases (Homo sapiens, UniProt O60674); conditions: JAK2; screened at 3000 nM
T7 construct: purchased DiscoverX; host or cells: E. coli (BL21-derived, T7 phage display) or HEK-293
Method in brief: as §1

[8] = biological target: T8, panel of ninety-seven kinases (Homo sapiens, UniProt P35968); conditions: KDR; screened at 3000 nM
T8 construct: purchased DiscoverX; host or cells: E. coli (BL21-derived, T7 phage display) or HEK-293
Method in brief: as §1

[9] = biological target: T9, panel of ninety-seven kinases (Homo sapiens, UniProt P08581); conditions: MET; screened at 3000 nM
T9 construct: purchased DiscoverX; host or cells: E. coli (BL21-derived, T7 phage display) or HEK-293
Method in brief: as §1

[10] = biological target: T10, panel of ninety-seven kinases (Homo sapiens, UniProt Q86V86); conditions: PIM3; screened at 3000 nM
T10 construct: purchased DiscoverX; host or cells: E. coli (BL21-derived, T7 phage display) or HEK-293
Method in brief: as §1

[11] = biological target: T11, panel of ninety-seven kinases (Homo sapiens, UniProt Q00526); conditions: CDK3; screened at 3000 nM
T11 construct: purchased DiscoverX; host or cells: E. coli (BL21-derived, T7 phage display) or HEK-293
T11 sequence (Q00526 whole entry): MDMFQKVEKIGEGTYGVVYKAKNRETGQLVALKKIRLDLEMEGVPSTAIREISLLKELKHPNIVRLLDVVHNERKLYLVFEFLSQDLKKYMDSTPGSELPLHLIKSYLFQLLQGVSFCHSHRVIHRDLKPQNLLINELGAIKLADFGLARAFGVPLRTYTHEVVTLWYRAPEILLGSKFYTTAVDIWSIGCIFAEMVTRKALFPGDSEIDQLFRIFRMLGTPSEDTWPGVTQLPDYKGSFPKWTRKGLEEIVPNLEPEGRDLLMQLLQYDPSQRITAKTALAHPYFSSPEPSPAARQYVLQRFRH
Method in brief: as §1

[12] = biological target: T12, panel of ninety-seven kinases (Homo sapiens, UniProt P31751); conditions: AKT2; screened at 3000 nM
T12 construct: purchased DiscoverX; host or cells: E. coli (BL21-derived, T7 phage display) or HEK-293
Method in brief: as §1

[13] = biological target: T13, panel of ninety-seven kinases (Homo sapiens, UniProt Q9BXA7); conditions: TSSK1B; screened at 3000 nM
T13 construct: purchased DiscoverX; host or cells: E. coli (BL21-derived, T7 phage display) or HEK-293
Method in brief: as §1

[14] = biological target: T14, panel of ninety-seven kinases (Homo sapiens, UniProt Q13153); conditions: PAK1; screened at 3000 nM
T14 construct: purchased DiscoverX; host or cells: E. coli (BL21-derived, T7 phage display) or HEK-293
T14 sequence (Q13153 whole entry): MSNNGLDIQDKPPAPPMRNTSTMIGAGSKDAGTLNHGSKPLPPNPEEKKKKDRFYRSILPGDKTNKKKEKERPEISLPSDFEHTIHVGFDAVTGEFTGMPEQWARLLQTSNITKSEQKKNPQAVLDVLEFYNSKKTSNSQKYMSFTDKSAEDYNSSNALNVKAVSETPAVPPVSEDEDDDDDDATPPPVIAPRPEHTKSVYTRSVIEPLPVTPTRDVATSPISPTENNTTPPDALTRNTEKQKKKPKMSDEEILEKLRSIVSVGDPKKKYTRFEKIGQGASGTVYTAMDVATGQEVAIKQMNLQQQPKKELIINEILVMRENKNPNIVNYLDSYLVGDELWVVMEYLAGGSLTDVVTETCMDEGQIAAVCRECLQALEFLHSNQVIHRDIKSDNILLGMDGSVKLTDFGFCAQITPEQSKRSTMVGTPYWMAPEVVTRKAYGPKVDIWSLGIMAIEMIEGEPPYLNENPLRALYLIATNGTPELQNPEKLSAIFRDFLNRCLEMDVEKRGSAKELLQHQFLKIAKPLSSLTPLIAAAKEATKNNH
Method in brief: as §1

[15] = biological target: T15, panel of ninety-seven kinases (Homo sapiens, UniProt O15111); conditions: CHUK; screened at 3000 nM
T15 construct: purchased DiscoverX; host or cells: E. coli (BL21-derived, T7 phage display) or HEK-293
Method in brief: as §1

[16] = biological target: T16, panel of ninety-seven kinases (Homo sapiens, UniProt Q9UM73); conditions: ALK; screened at 3000 nM
T16 construct: purchased DiscoverX; host or cells: E. coli (BL21-derived, T7 phage display) or HEK-293
Method in brief: as §1

[17] = biological target: T17, panel of ninety-seven kinases (Homo sapiens, UniProt Q9HBH9); conditions: MKNK2; screened at 3000 nM
T17 construct: purchased DiscoverX; host or cells: E. coli (BL21-derived, T7 phage display) or HEK-293
Method in brief: as §1

[18] = biological target: T18, panel of ninety-seven kinases (Homo sapiens, UniProt Q15759); conditions: MAPK11; screened at 3000 nM
T18 construct: purchased DiscoverX; host or cells: E. coli (BL21-derived, T7 phage display) or HEK-293
Method in brief: as §1

[19] = biological target: T19, panel of ninety-seven kinases (Homo sapiens, UniProt P45983); conditions: MAPK8; screened at 3000 nM
T19 construct: purchased DiscoverX; host or cells: E. coli (BL21-derived, T7 phage display) or HEK-293
Method in brief: as §1

[20] = biological target: T20, panel of ninety-seven kinases (Homo sapiens, UniProt Q9BVS4); conditions: RIOK2; screened at 3000 nM
T20 construct: purchased DiscoverX; host or cells: E. coli (BL21-derived, T7 phage display) or HEK-293
Method in brief: as §1

[21] = biological target: T21, panel of ninety-seven kinases (Homo sapiens, UniProt Q9UPE1); conditions: SRPK3; screened at 3000 nM
T21 construct: purchased DiscoverX; host or cells: E. coli (BL21-derived, T7 phage display) or HEK-293
Method in brief: as §1

[22] = biological target: T22, panel of ninety-seven kinases (Homo sapiens, UniProt P24941); conditions: CDK2; screened at 3000 nM
T22 construct: purchased DiscoverX; host or cells: E. coli (BL21-derived, T7 phage display) or HEK-293
Method in brief: as §1

T1 sequence (Q15303 26-1308): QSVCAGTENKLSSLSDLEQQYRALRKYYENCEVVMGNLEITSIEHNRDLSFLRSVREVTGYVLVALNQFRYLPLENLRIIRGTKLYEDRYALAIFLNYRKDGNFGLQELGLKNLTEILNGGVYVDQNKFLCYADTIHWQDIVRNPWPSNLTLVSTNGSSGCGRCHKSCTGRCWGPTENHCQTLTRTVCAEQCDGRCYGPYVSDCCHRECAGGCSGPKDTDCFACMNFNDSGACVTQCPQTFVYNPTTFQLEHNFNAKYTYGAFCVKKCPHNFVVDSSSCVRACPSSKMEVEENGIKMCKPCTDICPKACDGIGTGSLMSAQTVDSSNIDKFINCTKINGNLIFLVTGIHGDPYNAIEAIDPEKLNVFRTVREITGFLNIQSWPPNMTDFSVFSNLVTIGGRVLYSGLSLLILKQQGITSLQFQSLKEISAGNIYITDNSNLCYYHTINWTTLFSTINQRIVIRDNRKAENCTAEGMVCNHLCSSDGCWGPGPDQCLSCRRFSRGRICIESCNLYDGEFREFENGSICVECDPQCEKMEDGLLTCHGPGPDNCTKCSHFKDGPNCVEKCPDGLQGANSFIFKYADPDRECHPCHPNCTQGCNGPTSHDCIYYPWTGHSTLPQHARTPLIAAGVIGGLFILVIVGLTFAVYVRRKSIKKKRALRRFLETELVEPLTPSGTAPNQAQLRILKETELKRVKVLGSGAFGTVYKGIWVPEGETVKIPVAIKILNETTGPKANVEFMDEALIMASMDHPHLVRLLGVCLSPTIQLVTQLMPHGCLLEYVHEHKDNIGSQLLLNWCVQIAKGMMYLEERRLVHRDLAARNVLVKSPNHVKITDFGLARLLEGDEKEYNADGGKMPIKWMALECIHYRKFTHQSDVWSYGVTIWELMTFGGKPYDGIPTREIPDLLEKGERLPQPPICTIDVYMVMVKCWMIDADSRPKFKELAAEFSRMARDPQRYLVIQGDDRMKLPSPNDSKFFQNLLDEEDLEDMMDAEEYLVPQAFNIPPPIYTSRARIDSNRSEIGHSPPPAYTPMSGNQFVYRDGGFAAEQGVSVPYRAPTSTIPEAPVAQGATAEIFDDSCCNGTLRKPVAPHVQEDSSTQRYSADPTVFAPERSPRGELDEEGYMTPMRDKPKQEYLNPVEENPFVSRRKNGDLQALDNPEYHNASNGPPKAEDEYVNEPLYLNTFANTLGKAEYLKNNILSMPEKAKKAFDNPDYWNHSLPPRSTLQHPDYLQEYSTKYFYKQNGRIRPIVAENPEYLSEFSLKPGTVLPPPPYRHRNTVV

Structure (SMILES): CN(C)CCNC(=O)c1ccc(-c2ccc(-c3ccc(Cl)cc3)n2-c2ccccc2C(F)(F)F)cc1 (single isomer, unassigned) [Atropisomer A-2]
- % Ctrl @ 3 μM [1]: 99 % Ctrl
- % Ctrl @ 3 μM [2]: 97 % Ctrl
- % Ctrl @ 3 μM [3]: 81 % Ctrl
- % Ctrl @ 3 μM [4]: 92 % Ctrl
- % Ctrl @ 3 μM [5]: 75 % Ctrl
- % Ctrl @ 3 μM [6]: 98 % Ctrl
- % Ctrl @ 3 μM [7]: 80 % Ctrl
- % Ctrl @ 3 μM [8]: 100 % Ctrl
- % Ctrl @ 3 μM [9]: 100 % Ctrl
- % Ctrl @ 3 μM [10]: 98 % Ctrl
- % Ctrl @ 3 μM [11]: 100 % Ctrl
- % Ctrl @ 3 μM [12]: 100 % Ctrl
- % Ctrl @ 3 μM [13]: 100 % Ctrl
- % Ctrl @ 3 μM [14]: 87 % Ctrl
- % Ctrl @ 3 μM [15]: 100 % Ctrl
- % Ctrl @ 3 μM [16]: 89 % Ctrl
- % Ctrl @ 3 μM [17]: 85 % Ctrl
- % Ctrl @ 3 μM [18]: 99 % Ctrl
- % Ctrl @ 3 μM [19]: 77 % Ctrl
- % Ctrl @ 3 μM [20]: 100 % Ctrl
- % Ctrl @ 3 μM [21]: 71 % Ctrl
- % Ctrl @ 3 μM [22]: 94 % Ctrl

— US12637424B2, “Pharmaceutical salt of an arylpyrrole derivative” (SENTINEL ONCOLOGY LIMITED, priority 2020, dated 2026)
